Test results taken from PubChem BioAssay (NCI).
Where “and” joins values, the source holds several entries; their conditions need not be identical. Equal values may be shown once.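 Briefly, cells in 96-well plates were exposed to five compound concentrations for 48 h, and endpoints were estimated by linear interpolation. GI50 = concentration required for 50% inhibition of growth. Definition used: TGI = concentration required for complete inhibition of growth.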

Tests used:
Assay in all cases: NCI anticancer screen, dose series, 48 h
ACHN renal = tested on: ACHN renal
CAKI-1 renal = tested on: CAKI-1 renal
HCT-116 colon = tested on: HCT-116 colon
IGROV1 ovarian = tested on: IGROV1 ovarian
LOX IMVI melanoma = tested on: LOX IMVI melanoma
NCI-H460 lung = tested on: NCI-H460 lung
RPMI-8226 leukemia = tested on: RPMI-8226 leukemia
SF-539 CNS = tested on: SF-539 CNS
SK-MEL-5 melanoma = tested on: SK-MEL-5 melanoma
UACC-257 melanoma = tested on: UACC-257 melanoma

Row | SMILES | GI50 (ACHN renal) [µM] | TGI (ACHN renal) | GI50 (CAKI-1 renal) [µM] | TGI (CAKI-1 renal) | GI50 (HCT-116 colon) [µM] | TGI (HCT-116 colon) | GI50 (IGROV1 ovarian) [µM] | TGI (IGROV1 ovarian) | GI50 (LOX IMVI melanoma) [µM] | TGI (LOX IMVI melanoma) | GI50 (NCI-H460 lung) [µM] | TGI (NCI-H460 lung) | GI50 (RPMI-8226 leukemia) [µM] | TGI (RPMI-8226 leukemia) [µM] | GI50 (SF-539 CNS) [µM] | TGI (SF-539 CNS) | GI50 (SK-MEL-5 melanoma) [µM] | TGI (SK-MEL-5 melanoma) [µM] | GI50 (UACC-257 melanoma) [µM] | TGI (UACC-257 melanoma)
1 | CN1CCN(c2ccc(-c3cnc4c(-c5csc6ccccc56)cnn4c3)cc2)CC1 | 2.95 | 6.13 µM | 11.3 | > 15 µM | 3.15 | > 15 µM | 7.55 | > 15 µM | 2.65 | 5.4 µM | 2.14 | 4.41 µM | 2.99 | 9.75 | 2.36 | 4.62 µM | 2.48 | 4.54 | 13.8 | > 15 µM
2 | C=C(CN(CC(=C)C(=O)c1ccccc1)C(C)(C)C)C(=O)c1ccccc1 | – | 21.3 µM | – | 14.5 µM | – | 26.8 µM | – | 40.3 µM | – | 30.8 µM | – | 43.2 µM | – | 68.4 | – | 31.5 µM | – | 31.1 | – | 32.6 µM
3 | NC1=NC(c2ccccc2)N=C(Nc2ccccc2)N1 (stereo not given) | > 100 | > 100 µM | > 100 | > 100 µM | > 100 | > 100 µM | 39.4 | > 100 µM | > 100 | > 100 µM | > 100 | > 100 µM | > 100 | > 100 | > 100 | > 100 µM | 93 | > 100 | > 100 | > 100 µM
4 | Cn1cc2c(n1)c(N/N=C/c1ccccc1)nn1nnnc21 | – | > 100 µM | – | > 100 µM | – | > 100 µM | – | > 100 µM | – | > 100 µM | – | > 100 µM | – | > 100 | – | > 100 µM | – | > 100 | – | > 100 µM
5 | NC(=O)c1[nH]nc(C2OC(CO)C(O)C2O)c1O (stereo not given) | – | 1730 µM | – | 158 µM | – | 3770 µM | – | 1280 µM | – | 309 µM | – | 415 µM | – | 1830 | – | 505 µM | – | 4090 | – | > 5000 µM
6 | CC(=O)OCC1OC(OC2CC3C(C)(C)C(OC(C)=O)CC[C@]3(C)C3CCC45CC4(CC[C@H]5C(C)CC(O)C4OC4(C)C)[C@]23C)C(O)C(O)C1O (stereo not given in full) | 3.44 | 7.28 µM and 11.7 µM | 15.6 | 12.2 µM and 29.9 µM | 2.14 | 3.46 µM and 4.42 µM | 2.42 | 0.829 µM and 4.56 µM | 1.25 | 3.72 µM and 2.58 µM | 3.21 | 5.75 µM and 9.38 µM | – | 5 | 2.47 | 8.92 µM and 6.62 µM | – | 5.79 | 4.1 | 7.28 µM and 14.7 µM
7 | O=C1C=CC(=O)C1(Br)Br | – | 17.3 µM | – | 11.4 µM | – | 20.9 µM | – | 13.7 µM | – | 27.2 µM | – | 41.6 µM | – | 20.1 | – | 30.4 µM | – | 34 | – | 30.7 µM
8 | Cc1cc(S(=O)(=O)Nc2nc3ccsc3c(=O)n2Cc2ccco2)c(S)cc1Cl | > 100 | > 100 µM | > 100 | > 100 µM | > 100 | > 100 µM | > 100 | > 100 µM | > 100 | > 100 µM | 60.6 | > 100 µM | 59 | > 100 | > 100 | > 100 µM | 42.9 | > 100 | > 100 | > 100 µM
9 | O=C1C(Cl)=C(Nc2ccc3cn[nH]c3c2)C(=O)c2ccccc21 | 1.33 | 2.61 µM | 1.47 | 2.78 µM | 1.43 | 2.78 µM | 0.198 | 2.02 µM | 0.562 | 1.92 µM | 1.7 | 4.14 µM | 0.31 | 2.43 | 1.81 | 3.2 µM | 0.308 | 1.26 | 1.66 | 3.06 µM
10 | COc1cc2c3c(n(CCN)c(=O)c2cc1OC)-c1cc2c(cc1C3=O)OCO2 | 0.275 | – | < 0.0145 | 0.786 µM | 0.0521 | – | 1.53 | 4.74 µM | 0.235 | – | < 0.01 | 3.24 µM | < 0.0159 | 0.303 | 0.766 | 2.74 µM | < 0.01 | 0.0975 | 3.84 | 11.2 µM
11 | O=C([O-])c1ccc2c(c1)-c1nc-2nc2[n-]c(nc3nc(nc4[n-]c(n1)c1ccc(C(=O)[O-])cc41)-c1cc(C(=O)[O-])ccc1-3)c1ccc(C(=O)[O-])cc21.[Fe+2] | > 50 | > 50 µM | > 50 | > 50 µM | 13.6 | 34.4 µM | > 50 | > 50 µM | 20.7 | > 42.9 µM | > 50 | > 50 µM | > 27.3 | > 36.4 | > 29.5 | > 50 µM | > 50 | > 50 | > 50 | > 50 µM
12 | NCCNCC(O)CO (stereo not given) | – | > 100 µM | – | > 100 µM | – | > 100 µM | – | > 100 µM | – | > 100 µM | – | > 100 µM | – | > 100 | – | > 100 µM | – | > 100 | – | > 100 µM
13 | CC(CN)[C@@H]1CC[C@]2(CO)CC[C@]3(C)[C@H](CC[C@@H]4[C@@]5(C)CCC(NCCO)C(C)(C)[C@@H]5CC[C@]43C)[C@@H]12 (stereo not given in full) | 5.2 | 17.6 µM | 4.12 | 16.6 µM | 1.66 | 3.41 µM | 4.79 | 19.2 µM | 1.64 | 3.12 µM | 1.79 | 3.43 µM | 1.89 | 4.5 | 1.61 | 3.02 µM | 1.76 | 3.19 | 1.73 | 3.15 µM
